{
  "source": "patent US9289446B2",
  "about": "“Myocardial perfusion imaging methods and compositions” (GILEAD SCIENCES, INC., priority 2002, dated 2016)",
  "key": {"[1]": {"tested_on": "myocardial ischemia detection (SPECT MPI)", "test": "Example 6: stress/rest SPECT myocardial perfusion imaging, CVT-3146 versus adenosine", "type": "in vivo, human", "settings": "400 mcg vs 500 mcg", "description": "Pharmacologic stress SPECT myocardial perfusion imaging (MPI) with adenosine (A) is a well-accepted technique, with excellent diagnostic and prognostic value and proven safety. However, side effects are common and AV nodal block and severe flushing are poorly tolerated. Agents such as CVT-3146 selectively act upon the A2A adenosine receptor and avoid stimulation of other receptor subtypes which may prevent such adverse reactions.\nTo determine the ability of CVT-3146 to produce coronary hyperemia and accurately detect CAD, 35 subjects (26 men, 9 women; 67±10 years) underwent both A and CVT-3146 stress/rest MPI, with 10.0±9.1 days between studies. […] CVT-3146 [400 mcg (n=18), 500 mcg (n=17)] was administered as an IV bolus immediately followed by a saline flush, and then a Tc-99m radiopharmaceutical [sestamibi (n=34), tetrofosmin (n=1)]. SPECT images were uniformly processed, intermixed with control studies (normal and fixed-only defects), and interpreted by three observers in a blinded fashion using a 17-segment model. Quantitative analysis was also performed using 4D MSPECT. In addition to three separate readings, a consensus interpretation was performed and then a direct, same-screen comparison of A and CVT-3146 images undertaken to determine relative differences, using 5 regions per study."}, "[2]": {"test": "Solubility of CVT-3146 in water and in MBA-containing composition", "type": "physicochemical", "settings": "methylboronic acid co-solvent, dependence on pH", "experimental": "A preferred A2A receptor agonist of this invention is CVT-3146. CVT-3146 has solubility in water of about 50 micrograms/mL. Therefore, CVT-3146 can be dissolved and administered in water so long as the desired weight amount of CVT-3146 can be administered in an acceptable volume. For example, a preferred dose of about 400 micrograms can be administered in 8 mL of water. If this volume is too great for administration purposes, or if the pharmaceutical composition will be stored at other than room temperature (RT), then additional ingredients can be added to the composition to increase the solubility of CVT-3146 in the composition and/or to provide the resulting pharmaceutical composition with other improved properties such as improved stability and storage properties. Pharmaceutical compositions of this invention that include CVT-3146 may include up to about 1 milligram/mL of CVT-3146. It is preferred that pharmaceutical compositions including CVT-3146 include from about 50 to about 250 micrograms/mL, and more preferably from about 50 to 150 micrograms/mL of CVT-3146.\nIn order to improve their solubility and storage properties, A2A receptor agonists of this invention can be administered in a pharmaceutical composition including a methylboronic acid (MBA) co-solvent. The methylboronic acid is added to the pharmaceutical composition to improve agonist solubility and shelf life. […]"}, "[3]": {"test": "Example 7: adverse effects and hemodynamic effects of CVT-3146 as pharmacologic stress agent in MPI protocol", "type": "in vivo, human", "description": "CVT-3146 is a selective A2A adenosine receptor agonist that produces coronary hyperemia and potentially less adverse effects due to its limited stimulation of receptor subtypes not involved with coronary vasodilation. This study evaluated the effectiveness of CVT-3146 as a pharmacologic stress agent.\n36 subjects (27 men, 9 women; 67±10 years) were studied with two doses of CVT-3146 [400 mcg (n=18), 500 mcg (n=18)], administered as an IV bolus, as part of a pharmacologic stress myocardial perfusion imaging protocol."}, "[4]": {"tested_on": "coronary blood flow velocity", "test": "Example 2: dose-ranging study of CVT-3146 IV bolus as coronary vasodilator (coronary flow velocity, heart rate, blood pressure, adverse events)", "type": "in vivo, human", "description": "This example is a study performed to determine the range of dosages over which the selective A2A receptor agonist, CVT-3146 can be administered and be effective as a coronary vasodilator.\nThe study included patients undergoing a clinically indicated coronary catheterization with no more than a 70% stenosis in any coronary artery and no more than a 50% stenosis of the study vessel had CBFv determined by Doppler flow wire. Study subject were selected after measuring baseline and peak CBFv after an intracoronary (IC) injection of 18 μg of Ado. 36 subjects were identified as meeting the study criteria of having a peak to baseline CBFv ration of ≧2.5 in response to Adenosine,\nCVT-3146 was administered to the study subjects by IV bolus in less that 10 seconds in amounts ranging from 10 μg to 500 μg.\nThe effectiveness of both compounds was measured by monitoring coronary flow velocity. Other coronary parameters that were monitored included heart rate and blood pressure. These parameters were measured in order to evaluate the time to peak dose response, the magnitude of the dose response and the duration of the dose response. Adverse events were also monitored. Coronary blood flow velocity was measured at the left anterior descending coronary artery (LAD) or left circumflex coronary artery (LCx). The velocity measurements were taken by following standard heart catheterization techniques and inserting a 0.014 inch Doppler-tipped Flowire into the LAD or LCx vessel and thereafter monitoring blood flow velocity. In addition, hemodynamic and electrocardiographic measurements were recorded continuously.\nOverall, 36 human subjects (n=36) were evaluated. Of the 36, 18 were female and 18 were male. Their mean age was 53.4 and they ranged from 24-72 years in age. Of the 36 subjects evaluated, the LAD vessel of 31 subjects was monitored, and the LCx vessel of 5 subjects was monitored. The following doses (μg) of CVT-3146 were given to the subjects in a single iv bolus: 10 (n=4); 30 (n=6); 100 (n=4); 300 (n=7); 400 (n=9); 500 (n=6)."}, "[5]": {"settings": "36 subjects, 400 or 500 mcg IV bolus"}},
  "data": [
    {"smiles": "CNC(=O)c1cnn(-c2nc(N)c3ncn([C@@H]4O[C@H](CO)[C@@H](O)[C@H]4O)c3n2)c1", "note": "[CVT-3146, (1-{9-[(4S,2R,3R,5R)-3,4-dihydroxy-5-(hydroxymethyl)oxolan-2-yl]-6-aminopurin-2-yl}pyrazol-4-yl)-N-methylcarboxamide]", "values": [
      {"measurement": "dose-dependent effect on ischemia detection", "setting": "[1]", "result": "No dose-dependent effect"},
      {"measurement": "solubility in a pharmaceutical composition including MBA", "setting": "[2]", "result": "tends to decrease as the composition pH drops towards neutral"},
      {"measurement": "incidence of adverse effects (AE)", "setting": "[3]; [5]", "result": 72, "unit": "%"},
      {"measurement": "patients with adverse effects (AE)", "setting": "[3]; [5]", "result": 26, "unit": "pts"},
      {"measurement": "tolerability", "setting": "[3]; 400 and 500 mcg IV bolus", "result": "well-tolerated and has acceptable hemodynamic effects"},
      {"measurement": "Diastolic BP, peak Absolute Change", "setting": "[3]; 400 and 500 mcg, mean±S.D.", "result": "−5.4 ± 7.2", "unit": "mmHg"},
      {"measurement": "Diastolic BP, peak Relative Change", "setting": "[3]; 400 and 500 mcg, mean±S.D.", "result": "−7.9% ± 10.5%"},
      {"measurement": "Heart Rate, peak Absolute Change", "setting": "[3]; 400 and 500 mcg, mean±S.D.", "result": "+21.9 ± 10.4 beats per min"},
      {"measurement": "Heart Rate, peak Relative Change", "setting": "[3]; 400 and 500 mcg, mean±S.D.", "result": "+36.7% + 21.0%"},
      {"measurement": "Systolic BP, peak Absolute Change", "setting": "[3]; 400 and 500 mcg, mean±S.D.", "result": "−5.9 ± 10.7", "unit": "mmHg"},
      {"measurement": "Systolic BP, peak Relative Change", "setting": "[3]; 400 and 500 mcg, mean±S.D.", "result": "−4.1% ± 7.6%"},
      {"measurement": "serious AE", "setting": "[3]; both doses", "result": "One serious AE occurred, with exacerbation of a migraine headache"},
      {"measurement": "share of AEs mild to moderate", "setting": "[3]; both doses", "result": 96, "unit": "%"},
      {"measurement": "share of AEs resolved within 15 min without treatment", "setting": "[3]; both doses", "result": 91, "unit": "%"},
      {"measurement": "time of peak hemodynamic effect, heart rate (HR)", "setting": "[3]; both doses", "result": "≤ 0.033", "unit": "h"},
      {"measurement": "time of peak hemodynamic effect, systolic blood pressure (BP)", "setting": "[3]; both doses", "result": 4, "unit": "min"},
      {"measurement": "deviation of BP from baseline", "setting": "[3]; thirty min after CVT-3146", "result": "< 2", "unit": "%"},
      {"measurement": "time of maximum decrease in diastolic BP after dosing", "setting": "[4]; 400 μg IV bolus", "result": "about 1 minute"},
      {"measurement": "time of maximum decrease in systolic BP after dosing", "setting": "[4]; 400 μg IV bolus", "result": "about 1 minute"},
      {"measurement": "time of maximum increase in heart rate after dosing", "setting": "[4]; 400 μg IV bolus", "result": "about 1 minute"},
      {"measurement": "peak effects compared with adenosine", "setting": "[4]; doses above about 100 μg", "result": "equivalent to 18 μg adenosine administered IC"}
    ]}
  ]
}
